From patent EP1025114B1, “3'-N-MODIFIED 6-O-SUBSTITUTED ERYTHROMYCIN KETOLIDE DERIVATIVES HAVING ANTIBACTERIAL ACTIVITY” (priority 1997, dated 1999)

Legend:
Assay in all cases: In vitro antibacterial activity, agar dilution MIC
Format in all cases: cell-based
[1] = system: Streptococcus agalactiae CMX 508; conditions: Streptococcus agalactiae CMX 508 (organism code KK); BHI agar, 35-37 °C, 20 to 24 hours; unit assumed
Outline: (§1)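 Agar dilution method in BHI medium with twelve graded concentrations; slow-growing organisms such as Streptococcus were inoculated at 1:10, others at 1:100. Endpoint: lowest concentration showing no growth, slight haze or sparsely isolated colonies versus the compound-free plate.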

[2] = system: Escherichia coli DC-2; conditions: Escherichia coli DC-2 (organism code SS); BHI agar, 35-37 °C, 20 to 24 hours; unit assumed
Outline: as §1

[3] = system: Staphylococcus epidermidis 3519; conditions: Staphylococcus epidermidis 3519 (organism code HH); BHI agar, 35-37 °C, 20 to 24 hours; unit assumed
Outline: as §1

[4] = system: Nocardia Asteroides ATCC9970; conditions: Nocardia Asteroides ATCC9970 (organism code VV); BHI agar, 35-37 °C, 20 to 24 hours; unit assumed
Outline: as §1

[5] = system: Streptococcus Pheumoniae GYR 1171; conditions: Streptococcus Pheumoniae GYR 1171 (organism code YY); BHI agar, 35-37 °C, 20 to 24 hours; unit assumed
Outline: as §1

[6] = system: Mycobacterium smegmatis ATCC 114; conditions: Mycobacterium smegmatis ATCC 114 (organism code UU); BHI agar, 35-37 °C, 20 to 24 hours; unit assumed
Outline: as §1

[7] = system: Micrococcus luteus ATCC 9341; conditions: Micrococcus luteus ATCC 9341 (organism code OO); BHI agar, 35-37 °C, 20 to 24 hours; unit assumed
Outline: as §1

[8] = system: Escherichia coli SS; conditions: Escherichia coli SS (organism code RR); BHI agar, 35-37 °C, 20 to 24 hours; unit assumed
Outline: as §1

[9] = system: Streptococcus pyogenes 930; conditions: Streptococcus pyogenes 930 (organism code MM); BHI agar, 35-37 °C, 20 to 24 hours; unit assumed
Outline: as §1

[10] = system: Staphylococcus aureus ATCC 6538P; conditions: Staphylococcus aureus ATCC 6538P (organism code AA); BHI agar, 35-37 °C, 20 to 24 hours; unit assumed
Outline: as §1

[11] = system: Streptococcus bovis A-5169; conditions: Streptococcus bovis A-5169 (organism code JJ); BHI agar, 35-37 °C, 20 to 24 hours; unit assumed
Outline: as §1

[12] = system: Staphylococcus aureus A-5278; conditions: Staphylococcus aureus A-5278 (organism code CC); BHI agar, 35-37 °C, 20 to 24 hours; unit assumed
Outline: as §1

[13] = system: Escherichia coli JUHL; conditions: Escherichia coli JUHL (organism code QQ); BHI agar, 35-37 °C, 20 to 24 hours; unit assumed
Outline: as §1

[14] = system: Enterococcus faecium ATCC 8043; conditions: Enterococcus faecium ATCC 8043 (organism code II); BHI agar, 35-37 °C, 20 to 24 hours; unit assumed
Outline: as §1

[15] = system: Haemophilis Influenzae DILL AMP R; conditions: Haemophilis Influenzae DILL AMP R (organism code WW); BHI agar, 35-37 °C, 20 to 24 hours; unit assumed
Outline: as §1

[16] = system: Staphylococcus aureus 1775; conditions: Staphylococcus aureus 1775 (organism code GG); BHI agar, 35-37 °C, 20 to 24 hours; unit assumed
Outline: as §1

[17] = system: Streptococcus pyogenes PIU 2548; conditions: Streptococcus pyogenes PIU 2548 (organism code NN); BHI agar, 35-37 °C, 20 to 24 hours; unit assumed
Outline: as §1

[18] = system: Candida albicans CCH 442; conditions: Candida albicans CCH 442 (organism code TT); BHI agar, 35-37 °C, 20 to 24 hours; unit assumed
Outline: as §1

[19] = system: Micrococcus luteus ATCC 4698; conditions: Micrococcus luteus ATCC 4698 (organism code PP); BHI agar, 35-37 °C, 20 to 24 hours; unit assumed
Outline: as §1

[20] = system: Streptococcus Pheumoniae 5649; conditions: Streptococcus Pheumoniae 5649 (organism code ZZA); BHI agar, 35-37 °C, 20 to 24 hours; unit assumed
Outline: as §1

[21] = system: Streptococcus pyogenes EES61; conditions: Streptococcus pyogenes EES61 (organism code LL); BHI agar, 35-37 °C, 20 to 24 hours; unit assumed
Outline: as §1

[22] = system: Staphylococcus aureus CMX 642A; conditions: Staphylococcus aureus CMX 642A (organism code DD); BHI agar, 35-37 °C, 20 to 24 hours; unit assumed
Outline: as §1

[23] = system: Staphylococcus aureus CMX 553; conditions: Staphylococcus aureus CMX 553 (organism code FF); BHI agar, 35-37 °C, 20 to 24 hours; unit assumed
Outline: as §1

[24] = system: Staphylococcus aureus A5177; conditions: Staphylococcus aureus A5177 (organism code BB); BHI agar, 35-37 °C, 20 to 24 hours; unit assumed
Outline: as §1

[25] = system: Staphylococcus aureus NCTC10649M; conditions: Staphylococcus aureus NCTC10649M (organism code EE); BHI agar, 35-37 °C, 20 to 24 hours; unit assumed
Outline: as §1

[26] = system: Streptococcus Pheumoniae ATCC6303; conditions: Streptococcus Pheumoniae ATCC6303 (organism code XX); BHI agar, 35-37 °C, 20 to 24 hours; unit assumed
Outline: as §1

[27] = system: Streptococcus Pheumoniae 5979; conditions: Streptococcus Pheumoniae 5979 (organism code ZZ); BHI agar, 35-37 °C, 20 to 24 hours; unit assumed
Outline: as §1

Structure (SMILES)	MIC [1]	MIC [2]	MIC [3]	MIC [4]	MIC [5]	MIC [6]	MIC [7]	MIC [8]	MIC [9]	MIC [10]	MIC [11]	MIC [12]	MIC [13]	MIC [14]	MIC [15]	MIC [16]	MIC [17]	MIC [18]	MIC [19]	MIC [20]	other results
C=C(C)CN(C)[C@H]1C[C@@H](C)O[C@@H](O[C@@H]2[C@@H](C)C(=O)[C@@H](C)C(=O)O[C@H](CC)[C@@]3(C)OC(=O)N[C@@H]3[C@@H](C)C(=O)[C@H](C)C[C@@]2(C)OCC=Cc2cnc3ccccc3c2)[C@@H]1O [Example 19, Compound of Formula (II); R is -CH2CH=CH-(3-quinolyl), R^p is H, W is absent, R^w is H, R^1 is CH2C(=CH2)CH3,R^2 is CH3]	0.02 µg/mL	> 100 µg/mL	0.2 µg/mL	0.1 µg/mL	≤ 0.004 µg/mL	0.2 µg/mL	0.05 µg/mL	0.78 µg/mL	6.2 µg/mL	0.2 µg/mL	0.02 µg/mL	> 100 µg/mL	> 100 µg/mL	0.1 µg/mL	4 µg/mL	> 100 µg/mL	0.2 µg/mL	> 100 µg/mL	0.1 µg/mL	0.12 µg/mL	MIC [21]: 0.01 µg/mL; MIC [22]: 0.2 µg/mL; MIC [23]: 0.2 µg/mL; MIC [24]: 0.2 µg/mL; MIC [25]: 0.39 µg/mL; MIC [26]: ≤ 0.004 µg/mL; MIC [27]: 128 µg/mL
CC[C@H]1OC(=O)[C@H](C)C(=O)[C@H](C)[C@@H](O[C@@H]2O[C@H](C)C[C@H](N(C)C3CC3)[C@H]2O)[C@](C)(OCC=Cc2cnc3ccccc3c2)C[C@@H](C)C(=O)[C@H](C)[C@H]2NC(=O)O[C@@]21C [Example 20, Compound of Formula (II); R is -CH2CH=CH-(3-quinolyl), R^p is H, W is absent, R^w is H, R^1 is cyclo-C3H5, R^2 is CH3]	0.2 µg/mL	> 100 µg/mL	3.1 µg/mL	3.1 µg/mL	0.03 µg/mL	3.1 µg/mL	0.39 µg/mL	3.1 µg/mL	> 100 µg/mL	1.56 µg/mL	0.2 µg/mL	> 100 µg/mL	> 100 µg/mL	0.39 µg/mL	64 µg/mL	> 100 µg/mL	0.39 µg/mL	> 100 µg/mL	0.78 µg/mL	0.25 µg/mL	MIC [21]: 0.1 µg/mL; MIC [22]: 1.56 µg/mL; MIC [23]: 1.56 µg/mL; MIC [24]: 3.1 µg/mL; MIC [25]: 3.1 µg/mL; MIC [26]: 0.03 µg/mL; MIC [27]: 16 µg/mL
